Test results: patent US20220202940A1, “METHOD OF STABILIZING A DIALYSIS SOLUTION” (Fresenius Medical Care Deutschland GmbH, priority 2018, published 2022)

Details: 0.1 mmol/l orthophosphate added to DUOSOL 4551 after the start of the precipitation, 40° C.
Source text: The pH at which a significant precipitation of calcium carbonate starts is a criterion for the stability of the solution and is subsequently called pHmax. […] The time at which the significant precipitation of calcium carbonate starts is subsequently called tG to represent the “time of germination”.
The stabilizing effect of a subsequent addition of phosphate or of a phosphate ester to existing dialysis solutions was examined using the rapid degassing method in a carousel setup. THz rapid degassing method in this variant allows an accelerated aging of dialysis solutions by degassing the CO2 from the bicarbonate buffer. The degassing of CO2 that normally occur slowly during the life of the products can be simulated within a few hours with this experiment setup.
Three separate experiments are carried out for each data point and the mean value is used.
That is, after a specific time period, 2.5 ml of a parent solution having 100 mmol/l glycerophosphate is added to the flasks containing 250 ml DUOSOL 4551, which results in a concentration of 1.0 mmol/l of glycerophosphate in the flask.

O=P(O)(O)O [orthophosphate]
dissolution of existing calcium carbonate precipitate: not observed
effect on precipitation of calcium carbonate: inhibiting effect
